Active and inactive are the calls of the source. The calls are words filed in the database; no cut-off is given here.
Assay: Effect on amyloid beta 42 aggregation assessed as inhibition of fiber formation at 3 mM

Activity | SMILES
Active | O[C@H]1[C@H](O)[C@@H](O)[C@H](O)[C@@H](O)[C@@H]1O

Assay: Effect on amyloid beta 42 aggregation assessed as inhibition of fiber formation at 5 mM

Activity | SMILES
inactive | CO[C@H]1[C@H](O)[C@@H](O)[C@H](O)[C@@H](O)[C@@H]1O
inactive | O[C@@H]1[C@@H](O)[C@H](O)C[C@H](O)[C@H]1O
inactive | O[C@@H]1C[C@H](O)[C@@H](O)C[C@H]1O

The remaining lines, values behind:

SMILES | Activity
O[C@@H]1[C@@H](O)[C@H](Cl)[C@@H](O)[C@H](O)[C@H]1Cl | inactive
O[C@@H]1[C@@H](O)[C@H](F)[C@@H](O)[C@H](O)[C@H]1F | inactive
O[C@@H]1[C@@H](O)[C@H](O)[C@@H](Cl)[C@H](O)[C@H]1O | inactive

From ChEMBL document CHEMBL1155890, “Synthesis of scyllo-inositol derivatives and their effects on amyloid beta peptide aggregation” (Bioorg Med Chem, 2008)
